Drawing on PubChem BioAssay AID624350 (Johns Hopkins Ion Channel Center, 2012), this text covers outcome and IC50 for 62 compounds.

“And” between values parts separate entries of the source, which are not always exact repeats. Identical values can stand only once. The source made the active and inactive calls.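 The calls were made as follows: active = over 50% block of the Kir2.1 potassium channel by compound at 30 µM; inactive = the rest.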

The target of the test is Inward rectifier potassium channel 2 (Mus musculus) (UniProt P35561). Description: blockers of inward rectifier channel Kir2.1 – cell-based, HEK293, thallium flux, FluxOR fluorescence, dose response (AID 624350). Particulars: HEK293 Kir2.1, FluxOR thallium flux fluorescence, 20 min.
Chain of Inward rectifier potassium channel 2 (Mus musculus) (P35561 whole entry, looked up): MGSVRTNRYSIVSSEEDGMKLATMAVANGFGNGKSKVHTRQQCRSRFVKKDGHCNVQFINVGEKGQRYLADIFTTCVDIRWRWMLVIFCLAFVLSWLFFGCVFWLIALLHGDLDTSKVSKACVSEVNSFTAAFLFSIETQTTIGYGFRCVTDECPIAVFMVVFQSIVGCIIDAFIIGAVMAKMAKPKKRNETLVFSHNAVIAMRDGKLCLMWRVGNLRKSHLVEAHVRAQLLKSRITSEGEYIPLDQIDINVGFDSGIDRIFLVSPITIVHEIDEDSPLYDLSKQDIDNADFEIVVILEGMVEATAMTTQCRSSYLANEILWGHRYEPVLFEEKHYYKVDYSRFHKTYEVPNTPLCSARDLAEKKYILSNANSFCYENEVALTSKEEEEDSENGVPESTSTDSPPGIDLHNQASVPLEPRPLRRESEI
Take `O=S(=O)(NCC(c1ccccc1)c1ccccc1)c1ccc(Br)cc1`: the outcome was inactive.
For orientation: IC50 means the concentration that inhibits the measured activity by half. For `O=S(=O)(c1ccccc1F)N1CCCc2ccccc21`, the IC50 is 11.2 µM.
Take `Cc1ccc(C)c(OCCCN2CCOCC2)c1`: the result was inactive.
In the case of `COCc1nc2ccccc2n1-c1ccccc1`, the outcome was inactive.
Take `O=S(=O)(NCc1cccnc1)c1ccc(Br)cc1`: the result was inactive.
With `COCc1nc2ccccc2n1Cc1ccccc1`, the outcome was inactive.
Still for that read-out and setting: the same measure for `O=S(=O)(NCCc1ccccc1)c1ccc(Br)cc1`: “inactive”; for `O=S(=O)(N[C@H]1c2ccccc2C[C@H]1O)c1ccc(Br)cc1`: “inactive”.
Regarding `O=S(=O)(NCc1ccccn1)c1ccc(Br)cc1`, the result was inactive.
Same read-out and setting: for `C[C@@H](NC(=O)c1ccc(Br)cc1)c1ccccc1` the value was “inactive”; for `O=S(=O)(NCc1ccco1)c1ccc(Br)cc1`, “inactive”.
As to `O=S(=O)(NCCc1c[nH]c2ccccc12)c1ccc(Br)cc1`, the IC50 was 13.4 µM.
Regarding `O=S(=O)(c1cccc(F)c1)N1CCCc2ccccc21`, the IC50 was 12.6 µM.
Turning to `O=[N+]([O-])c1ccc(CNS(=O)(=O)c2ccc(Br)cc2)cc1`, the IC50 was 17.8 µM.
Regarding `Cc1ccc(C)c(OCCCNC[C@@H](C)O)c1`, the IC50 entry is “inactive”.
With `O=S(=O)(c1ccc(F)cc1)N1CCCc2ccccc21`, the IC50 is 11.9 µM.
For `O=C(c1ccc(F)cc1)N1CCCc2ccccc21`, the outcome was inactive.
`Cc1ccc(C)c(OCCCNCc2ccccc2)c1`: the IC50 is 8.91 µM.
`COCc1nc2ccccc2n1CC(C)C`: the result was inactive.
Take `O=S(=O)(NCc1ccc(F)c(F)c1)c1ccc(Br)cc1`: the IC50 is 11.3 µM.
Turning to `CCN(CC)CCCOc1cc(C)ccc1C`, the result was inactive.
For `c1ccc(Cc2nc3ccccc3n2Cc2ccccc2)cc1`, the half-inhibitory concentration (IC50) is 29.9 µM.
Consider `O=S(=O)(c1ccc(Br)cc1)N1CCC(c2ccccc2)CC1`, for which the result was inactive.
`O=S(=O)(c1ccc(Br)cc1)N1CCCc2ccccc21`: the IC50 is 15.8 µM and 13.4 µM.
On to `COCc1nc2ccccc2n1C1CC1`, for which the result was inactive.
In the case of `c1ccc(Cc2nc3ccccc3n2-c2ccccc2)cc1`, the concentration for half-maximal inhibition (IC50) is 15 µM.
Take `O=S(=O)(NCc1ccncc1)c1ccc(Br)cc1`: the result was inactive.
Turning to `CC(C)Cn1c(Cc2ccccc2)nc2ccccc21`, the IC50 was 28.4 µM.
Turning to `Cc1ccc(C)c(OCCCNCCO)c1`, the result was inactive.
With `O=S(=O)(NCc1cc(F)cc(F)c1)c1ccc(Br)cc1`, the IC50 was 15.6 µM.
In the case of `Cc1ccc(C)c(OCCCN2CCCCC2)c1`, the outcome was inactive.
Consider `O=S(=O)(NCc1ccc(F)cc1F)c1ccc(Br)cc1`, for which the IC50 is 16.3 µM.
Consider `Cc1ccc(C)c(OCCCNCc2ccco2)c1`, for which the IC50 result is “inactive”.
On the same count and under the same terms, the same measure for `Cc1ccc(C)c(OCCCNCc2ccc(Cl)c(Cl)c2)c1`: 13.4 µM.
Regarding `COc1ccccc1CCNS(=O)(=O)c1ccc(Br)cc1`, the IC50 was 7.81 µM.
Turning to `O=S(=O)(c1ccc(Br)cc1)N1CCc2ccccc21`, the IC50 was 17.9 µM.
As to `CCN(Cc1ccncc1)S(=O)(=O)c1ccc(Br)cc1`, the IC50 was 23 µM.
Regarding `COc1ccc(CCNS(=O)(=O)c2ccc(Br)cc2)cc1OC`, the result was inactive.
As to `O=S(=O)(NC1Cc2ccccc2C1)c1ccc(Br)cc1`, the IC50 was 28.4 µM.
With `CN(Cc1ccccc1)S(=O)(=O)c1ccc(Br)cc1`, the outcome was inactive.
In the case of `O=S(=O)(NCc1cccc2ccccc12)c1ccc(Br)cc1`, the outcome was inactive.
On to `O=S(=O)(NCc1cccc(F)c1)c1ccc(Br)cc1`, for which the outcome was inactive.
Turning to `O=S(=O)(c1cccc(Br)c1)N1CCCc2ccccc21`, the half-inhibitory concentration (IC50) is 12.6 µM.
As to `Cc1ccc(C)c(OCCCOCc2ccccc2)c1`, the outcome was inactive.
On the same count and under the same terms, the same measure for `Cc1ccc(C)c(OCCCNC[C@H](C)O)c1`: “inactive”; for `c1ccc(Cc2nc3ccccc3n2C2CC2)cc1`: “inactive”.
In the case of `Cc1ccc(C)c(OCCCNc2ccccc2)c1`, the result was inactive.
Regarding `CN1CCN(S(=O)(=O)c2ccc(Br)cc2)CC1`, the outcome was inactive.
As for `Cc1ccc(C)c(OCCCNCC2CCCCC2)c1`, the IC50 is 18.9 µM.
On to `O=S(=O)(c1ccc(Br)cc1)N1CCN(c2ccc(Cl)c(Cl)c2)CC1`, for which the outcome was inactive.
In the case of `C[C@@H](NS(=O)(=O)c1ccc(Br)cc1)c1cccc2ccccc12`, the IC50 was 9.46 µM.
On to `C[C@H](NC(=O)c1ccc(Br)cc1)c1ccccc1`, for which the outcome was inactive.
For `Cc1ccc(C)c(OCCCN(C)CCO)c1`, the outcome was inactive.
Regarding `C[C@@H](c1ccccc1)N(Cc1ccccc1)S(=O)(=O)c1ccc(Br)cc1`, the result was inactive.
Take `Cc1ccc(C)c(OCCCN(C)Cc2ccccc2)c1`: the IC50 was 11.9 µM.
Still for that read-out and setting: for `Cc1ccc(C)c(OCCCNCCc2ccccc2)c1` the value was 10.6 µM.
With `COCc1nc2ccccc2n1CCN1CCOCC1`, the result was inactive.
With `O=S(=O)(c1ccccc1Br)N1CCCc2ccccc21`, the IC50 was 10 µM.
Turning to `O=S(=O)(NCc1ccccc1)c1ccc(Br)cc1`, the outcome was inactive.
Take `COc1ccc(N2CCN(S(=O)(=O)c3ccc(Br)cc3)CC2)cc1`: the result was inactive.
For `Cc1ccc(C)c(OCCCNCc2cccc3ccccc23)c1`, the IC50 is 11.2 µM.
As for `O=S(=O)(c1ccc(Br)cc1)N1CCCCC1`, the outcome was inactive.
